Counter-ions that a name gives are not always drawn.
What was measured:
[1] = tested on: Crohn's patients; conditions: transient, baseline by week 8; cited from earlier work
[2] = tested on: patients with severe Crohn's disease; conditions: over 8 weeks; cited from earlier work
[3] = tested on: LPS-stimulated rats; test: Endotoxin-induced uveitis in rats (assay vi); format: in vivo, rat; conditions: rats treated with intravitreal endotoxin LPS
Procedure: Male, Lewis rats (6-8 weeks old, Charles River UK Limited) are housed in cages of 3 at 19-21° C. with a 12 h light/dark cycle (07:00/19:00) and fed a standard diet of rodent chow and water ad libitum. Non-fasted rats are weighed, individually identified on the tail with a permanent marker, and receive a single intravitreal administration into the right vitreous humor (5 μL dose volume) of 100 ng/animal of LPS (Escherichia coli 0111:B4 prepared in PBS, Sigma Aldrich, UK) using a 32-gauge needle. Untreated rats are injected with PBS. Test compound or vehicle (4% polyoxyl 40 stearate, 4% mannitol in PBS (pH 7.4)) are administered by the topical route onto the right eye (10 μL) of animals 1 hour prior to LPS, at the time of LPS administration, and 1, 2 and 4 hours post LPS administration. Before administration, the solution to be administered is sonicated to ensure a clear solution. 6 hours after LPS dosing, animals are euthanized by overdose with pentobarbitone (via cardiac puncture) Immediately after euthanasia, 10 μL of aqueous humor is collected from the right eye of the rats by puncture of the anterior chamber using a 32 gauge needle under a surgical microscope. The aqueous humor is diluted in 20 μL of PBS and total cell counts are measured immediately using a Countess automated cell counter (Invitrogen). […]

[4] = Stability of pharmaceutical formulations; format: physicochemical; conditions: for Purity (%) at week n = 4: 4 weeks
Procedure: The samples were sonicated to achieve clear solutions having the following properties: Osmolality (mOsm/kg): 310 (Na), 314 (HCl); pH: 7.00 (Na), 7.05 (HCl). 0.5 mL of the stock solutions were diluted to 1 mL with 20% DMSO in water & injected for purity analysis by HPLC. The remaining stock solutions were then split into aliquots of 0.5 mL in HPLC vials, and stored at various conditions in duplicate. Samples were stored at 5 and 25° C., before being analysed by HPLC at 1, 2 and 4 weeks. Separate samples were stored at 40° C. and analysed at 4 weeks.

[5] = tested on: eyes of albino New Zealand White rabbits; conditions: Phase 1, one treatment day, 0.1 and 1.0 mg/mL
[6] = tested on: Salmonella typhimurium, strains TA1535, TA1537, TA98 and TA100; test: Bacterial reverse mutation screen (plate incorporation); conditions: for limit of solubility in the mutation test: all strains; for limit of solubility in the mutation test / mutagenic effects (revertant numbers): presence and absence of S-9 mix; for toxicity to the bacteria (mean colony count): at 500-5000 μg/plate in some strains
[7] = tested on: Escherichia coli, WP2 uvrA; test: as above; conditions: for mutagenic effects (revertant numbers): presence and absence of S-9 mix
[8] = tested on: non-mutant kinases; test: KinomeScan selectivity scores; format: binding; conditions: for KinomeScan Selectivity Score S(1): kinases with % Ctrl <1 / kinases tested; for KinomeScan Selectivity Score S(10): kinases with % Ctrl <10 / kinases tested; for kinase selectivity compared to the Reference Compound: KINOMEscan selectivity scores
From the text: These assays may be conducted by DiscoverX (formerly Ambit; San Diego, Calif.).

[9] = Hydrolytic stability study; format: physicochemical; conditions: 1 mg/mL; for % Parent Remaining: DMSO/water (3:1)
Procedure: Chemical stability of compounds of the invention was assessed in a mixture of DMSO and water (3:1) at a test compound concentration of 1 mg/mL.
General HPLC Procedure • Agilent, Waters X-Select C18, 2.5 μm, 4.6×30 mm column, 4 min method, 5-95% MeCN/water (0.1% formic acid). Flow rate 2.5 mL/min. Column Oven Temperature 40° C. Detection 254 nm.
Sample Preparation • A 1.0 mg sample of test compound was dissolved in 750 μL of DMSO. Water (250 μL) was added slowly, ensuring no precipitation occurred.
Recording Stability • A 50 μL aliquot of the test solution was removed and analysed in duplicate by 5 μL HPLC injections. The peak area for the test compound was recorded following manual integration of the corresponding UV trace. • The test solution was heated to 60° C., with stirring, and 50 μL aliquots removed for HPLC analysis at 5 and 24 h timepoints.

[10] = tested on: rheumatoid arthritis patients; conditions: cited from earlier work
[11] = 60° C., 24 h timepoint (1429-1450 min)

In the case of `Cc1ccc(-n2nc(C(C)(C)C)cc2NC(=O)Nc2ccc(OCCN3CCOCC3)c3ccccc23)cc1` [BIRB796], the “clinical benefit (C-reactive protein levels)” value [1] is listed as “improvement in C-reactive protein levels”.

For `C/C(=N\N=C(N)N)c1cc(NC(=O)CCCCCCCCC(=O)Nc2cc(/C(C)=N/N=C(N)N)cc(/C(C)=N/N=C(N)N)c2)cc(/C(C)=N/N=C(N)N)c1.Cl.Cl.Cl.Cl` [CNI-1493], the clinical score [2] is listed as “significant improvement in clinical score”.

With `COc1cc(Nc2cc(Oc3ccc(NC(=O)Nc4cc(C(C)(C)C)cc(NS(C)(=O)=O)c4OC)c4ccccc34)ccn2)ccc1C(=O)O` [Example 1, 4-((4-((4-(3-(5-(tert-Butyl)-2-methoxy-3-(methylsulfonamido)phenyl)ureido)naphthalen-1-yl)oxy)pyridin-2-yl)amino)-2-methoxybenzoic acid] the “cellular infiltration (cell counts) in the eyes” value [3] was “significantly and dose-dependently reduced”, the “cytokine IL-1β levels in anterior and posterior segments of the eyes” value [3] was “significantly and dose-dependently reduced” and the stability in solution ([4]; 1 mg/mL Na and HCl salts, 10 mM pH 7.2 phosphate buffer, 4.5% mannitol, 3% polyoxyl 40 stearate, 5° C., up to 4 weeks) was “stable”. For the same molecule, the “ocular reactions versus vehicle controls” value [5] was “no differences in the frequency, severity and incidence”, the “limit of solubility in the mutation test” value [6] was 1500 μg/plate and the “toxicity to the bacteria (mean colony count)” value (“toxicity to the bacteria” for short) [6] was “reduction in the mean colony count”. The “mutagenic effects (revertant numbers)” value [6] was “absence of any mutagenic effects” and the “mutagenic effects (revertant numbers)” value [7] was “absence of any mutagenic effects”.

For `COc1cc(Nc2cc(Oc3ccc(NC(=O)Nc4cc(C(C)(C)C)cc(NS(C)(=O)=O)c4OC)c4ccccc34)ccn2)ccc1C(=O)O.Cl` [Example 1, hydrochloride salt, 4-((4-((4-(3-(5-(tert-butyl)-2-methoxy-3-(methylsulfonamido)phenyl)ureido)naphthalen-1-yl)oxy)pyridin-2-yl)amino)-2-methoxybenzoic acid, hydrochloride salt], the “Purity (%) at week n = 2” value ([4]; 1 mg/mL buffered solution stored at 5° C., 2 weeks, duplicate samples, hydrochloride salt) was 98.0%, the “Purity (%) at week n = 4” value ([4]; 1 mg/mL buffered solution stored at 5° C., duplicate samples, hydrochloride salt) was 98.0% and the “Purity (%) at week n = 1” value ([4]; 1 mg/mL buffered solution stored at 25° C., 1 week, duplicate samples) was 98.0%.

For `COc1cc(Nc2cc(Oc3ccc(NC(=O)Nc4cc(C(C)(C)C)cc(NS(C)(=O)=O)c4OC)c4ccccc34)ccn2)ccc1C(=O)O` [Example 1, sodium salt], the “Purity (%) at week n = 4” value ([4]; 1 mg/mL buffered solution stored at 40° C., duplicate samples) was 76.0%.

In the case of `COc1cc(Nc2cc(Oc3ccc(NC(=O)Nc4cc(C(C)(C)C)cc(NS(C)(=O)=O)c4OC)c4ccccc34)ccn2)cc(OC)c1C(=O)NCCOCCOCCO` [Example 36, 4-((4-((4-(3-(5-(tert-Butyl)-2-methoxy-3-(methylsulfonamido)phenyl)ureido)naphthalen-1-yl)oxy)pyridin-2-yl)amino)-N-(2-(2-(2-hydroxyethoxy)ethoxy)ethyl)-2,6-dimethoxybenzamide], the “KinomeScan Selectivity Score S(1)” value ([8]; 50 nM) is reported as 0.002, the “KinomeScan Selectivity Score S(10)” value ([8]; 50 nM) is reported as 0.050 and the “KinomeScan Selectivity Score S(1)” value ([8]; 500 nM) is reported as 0.079. The “kinase selectivity compared to the Reference Compound” value [8] was “improved selectivities”.

In the case of `COc1cc(Nc2cc(Oc3ccc(NC(=O)Nc4cc(C(C)(C)C)cc(NS(C)(=O)=O)c4OC)c4ccccc34)ccn2)ccc1P(C)(=O)O` [Example 44, (4-((4-((4-(3-(5-(tert-Butyl)-2-methoxy-3-(methylsulfonamido)phenyl)ureido)naphthalen-1-yl)oxy)pyridin-2-yl)amino)-2-methoxyphenyl)(methyl)phosphinic acid], the “% Parent Remaining” value [9, 11] is reported as 98%, the “% Parent Remaining” value ([9]; time 0 min) is reported as 100% and the “limit of solubility in the mutation test” value [6] is reported as 5000 μg/plate. The “toxicity to the bacteria” value [6] was “reduction in the mean colony count”, the “mutagenic effects (revertant numbers)” value [6] was “absence of any mutagenic effects” and the “toxicity to the bacteria” value ([7]; 5000 μg/plate, absence of S-9 mix) was “reduction in the mean colony count”. For the same molecule, the “mutagenic effects (revertant numbers)” value [7] was “absence of any mutagenic effects”.

For `COc1cc(Nc2cc(Oc3ccc(NC(=O)Nc4cc(C(C)(C)C)cc(NS(C)(=O)=O)c4OC)c4ccccc34)ccn2)cc(OC)c1C(=O)NCCOCCOCCOP(=O)(O)O` [Example 47, 2-(2-(2-(4-((4-((4-(3-(5-(tert-butyl)-2-methoxy-3-(methylsulfonamido)phenyl)ureido)-naphthalen-1-yl)oxy)pyridin-2-yl)amino)-2,6-dimethoxybenzamido)ethoxy)ethoxy)ethyl dihydrogen phosphate], the “KinomeScan Selectivity Score S(10)” value ([8]; 50 nM) was 0.042, the “KinomeScan Selectivity Score S(1)” value ([8]; 500 nM) was 0.074 and the “kinase selectivity compared to the Reference Compound” value [8] was “improved selectivities”. For the same molecule, the “% Parent Remaining” value [9, 11] was 89% and the “% Parent Remaining” value ([9]; time 0 min) was 100%.

For `COc1cc(Nc2ncc(F)c(Nc3ccc4c(n3)N(COP(=O)(O)O)C(=O)C(C)(C)O4)n2)cc(OC)c1OC` [Fostamatinib], the “clinical outcome and serum IL-6 and MMP-3” value [10] is listed as “improved clinical outcome and reduced serum levels of IL-6 and MMP-3”.

For `C#Cc1cc(Nc2nccc(Oc3ccc(NC(=O)Nc4cc(C(C)C)nn4-c4ccc(C)cc4)c4ccccc34)n2)cc(C(=O)NCCN2CCOCC2)c1` [Reference Compound B, 3-ethynyl-5-((4-((4-(3-(3-isopropyl-1-(p-tolyl)-1H-pyrazol-5-yl)ureido)naphthalen-1-yl)oxy)pyrimidin-2-yl)amino)-N-(2-morpholinoethyl)benzamide, reference compound], the “decomposition (hydrolytic stability)” value ([9]; DMSO and water (3:1), 60° C., 5 and 24 h) was “underwent substantial decomposition”, the “% Parent Remaining” value ([9]; 60° C., 5 h timepoint (297-317 min)) was 79% and the “% Parent Remaining” value [9, 11] was 18%. The “% Parent Remaining” value ([9]; time 0 min) was 100%.

Source: patent US10392346B2, “Kinase inhibitors” (Topivert Pharma Limited, priority 2014, dated 2019)
